Measured values taken from patent US20090137549A1, “Novel compounds useful for the treatment of degenerative & inflamatory diseases” (priority 2006, published 2009).

Target: PDE1A (Homo sapiens, UniProt P54750)
Test: PDE1A dose response, Cyclic Nucleotide Phosphodiesterase Assay Kit from Biomol (colorimetric)
Assay type: biochemical
Settings: purified PDE1A enzyme, 100 μM cAMP
How it was run: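 Purified PDE1A hydrolysed 100 μM cAMP with 5′-nucleotidase in Tris 20 mM pH 7.4 with calmodulin, Ca2+, Mg2+, 45 min at 37° C. Released phosphate read by malachite-green absorbance at 615 nm. Duplicate 8-point 1/3 dilutions from 20 μM, 1% DMSO; 10 μM vardenafil defined 100% inhibition.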

Compound	IC50
Cc1nn(C2CCCCC2)c2nc(C3CCCN(S(=O)(=O)Cc4ccccc4)C3)[nH]c(=O)c12 (stereo not drawn) [Example 103, 6-(1-(benzylsulfonyl)piperidin-3-yl)-1-cyclohexyl-3-methyl-1H-pyrazolo[3,4-d]pyrimidin-4(5H)-one]	1000 to 1500 nM
O=c1[nH]c(C2CCCN(S(=O)(=O)c3ccc(OC(F)(F)F)cc3)C2)nc2c1cnn2C1CCCCC1 (stereo not drawn) [Example 105, 1-cyclohexyl-6-(1-(4-(trifluoromethoxy)phenylsulfonyl)piperidin-3-yl)-1H-pyrazolo[3,4-d]pyrimidin-4(5H)-one]	1000 to 1500 nM
Cc1nn(C2CCCCC2)c2nc(C3CCCN(S(=O)(=O)c4ccccc4)C3)[nH]c(=O)c12 (stereo not drawn) [Example 106, 1-cyclohexyl-3-methyl-6-(1-(phenylsulfonyl)piperidin-3-yl)-1H-pyrazolo[3,4-d]pyrimidin-4(5H)-one]	1000 to 1500 nM
CC(C)N1CC(n2ncc3c(=O)[nH]c(C4CN(C(=O)Nc5ccc(F)cc5)C4)nc32)C1 [Example 108, N-(4-fluorophenyl)-3-(1-(1-isopropylazetidin-3-yl)-4-oxo-4,5-dihydro-1H-pyrazolo[3,4-d]pyrimidin-6-yl)azetidine-1-carboxamide]	1000 to 1500 nM
N#Cc1ccc(C(=O)N2CCCC(c3nc4c(cnn4-c4ccccc4)c(=O)[nH]3)C2)cc1 (stereo not drawn) [Example 110, 4-(3-(4-oxo-1-phenyl-4,5-dihydro-1H-pyrazolo[3,4-d]pyrimidin-6-yl)piperidine-1-carbonyl)benzonitrile]	1000 to 1500 nM
CCCn1nc(C)c2c(=O)[nH]c(C3CCCN(S(=O)(=O)c4ccc(OC)cc4)C3)nc21 (stereo not drawn) [Example 111, 6-(1-(4-methoxyphenylsulfonyl)piperidin-3-yl)-3-methyl-1-propyl-1H-pyrazolo[3,4-d]pyrimidin-4(5H)-one]	1000 to 1500 nM
CCc1nn(C2CCCCC2)c2nc(C3CN(C(=O)Nc4ccccc4OC(F)F)C3)[nH]c(=O)c12 [Example 114, 3-(1-cyclohexyl-3-ethyl-4-oxo-4,5-dihydro-1H-pyrazolo[3,4-d]pyrimidin-6-yl)-N-(2-(difluoromethoxy)phenyl)azetidine-1-carboxamide]	501 to 1000 nM
CC(C)N1CCN(c2ccc(OC(=O)N3CC(c4nc5c(cnn5C(C)(C)C)c(=O)[nH]4)C3)cc2)CC1 [Example 116, 4-(4-Isopropylpiperazin-1-yl)phenyl 3-(1-tert-butyl-4-oxo-4,5-dihydro-1H-pyrazolo [3,4-d]pyrimidin-6-yl)azetidine-1-carboxylate]	1 to 100 nM
CC(C)(C)n1ncc2c(=O)[nH]c(C3CN(C(=O)OCC4CCCCC4)C3)nc21 [Example 117, cyclohexylmethyl 3-(1-tert-butyl-4-oxo-4,5-dihydro-1H-pyrazolo[3,4-d]pyrimidin-6-yl)azetidine-1-carboxylate]	1 to 100 nM
O=C(OCC1CCCCC1)N1CC(c2nc3c(cnn3C3CCCCC3)c(=O)[nH]2)C1 [Example 120, cyclohexylmethyl 3-(1-cyclohexyl-4-oxo-4,5-dihydro-1H-pyrazolo[3,4-d]pyrimidin-6-yl)azetidine-1-carboxylate]	1 to 100 nM
O=C(Oc1ccc(F)cc1)N1CC(c2nc3c(cnn3C3CCCCC3)c(=O)[nH]2)C1 [Example 121, 4-fluorophenyl 3-(1-cyclohexyl-4-oxo-4,5-dihydro-1H-pyrazolo[3,4-d]pyrimidin-6-yl)azetidine-1-carboxylate]	1 to 100 nM
CC(C)(C)COC(=O)N1CC(c2nc3c(cnn3C3CCCCC3)c(=O)[nH]2)C1 [Example 122, neopentyl 3-(1-cyclohexyl-4-oxo-4,5-dihydro-1H-pyrazolo[3,4-d]pyrimidin-6-yl)azetidine-1-carboxylate]	101 to 500 nM

Further lines, results first:

IC50	Compound
1000 to 1500 nM	Cc1nn(C2CCC2)c2nc(C3CCCN(C(=O)c4ccc(C#N)cc4)C3)[nH]c(=O)c12 (stereo not drawn) [Example 102, 4-(3-(1-cyclobutyl-3-methyl-4-oxo-4,5-dihydro-1H-pyrazolo[3,4-d]pyrimidin-6-yl)piperidine-1-carbonyl)benzonitrile]
1000 to 1500 nM	CCCCCS(=O)(=O)N1CC(c2nc3c(cnn3C3CCCCC3)c(=O)[nH]2)C1 [Example 104, 1-cyclohexyl-6-(1-(pentylsulfonyl)azetidin-3-yl)-1H-pyrazolo[3,4-d]pyrimidin-4(5H)-one]
1000 to 1500 nM	Cc1nn(C2CCCCC2)c2nc(C3CCCN(S(=O)(=O)c4ccccc4OC(F)(F)F)C3)[nH]c(=O)c12 (stereo not drawn) [Example 107, 1-cyclohexyl-3-methyl-6-(1-(2-(trifluoromethoxy)phenylsulfonyl)piperidin-3-yl)-1H-pyrazolo[3,4-d]pyrimidin-4(5H)-one]
1000 to 1500 nM	Cc1nn(-c2ccccc2)c2nc(C3CCCN(C(=O)c4ccc(C#N)cc4)C3)[nH]c(=O)c12 (stereo not drawn) [Example 109, 4-(3-(3-methyl-4-oxo-1-phenyl-4,5-dihydro-1H-pyrazolo[3,4-d]pyrimidin-6-yl)piperidine-1-carbonyl)benzonitrile]
1000 to 1500 nM	Cc1nn(C2CCCCC2)c2nc(C3CCCN(C(=O)CCc4ccccc4)C3)[nH]c(=O)c12 (stereo not drawn) [Example 112, 1-cyclohexyl-3-methyl-6-(1-(3-phenylpropanoyl)piperidin-3-yl)-1H-pyrazolo[3,4-d]pyrimidin-4(5H)-one]
1000 to 1500 nM	CC(=O)Nc1ccc(C(=O)N2CCCC(c3nc4c(c(C)nn4C4CCCCC4)c(=O)[nH]3)C2)cc1 (stereo not drawn) [Example 113, N-(4-(3-(1-cyclohexyl-3-methyl-4-oxo-4,5-dihydro-1H-pyrazolo[3,4-d]pyrimidin-6-yl)piperidine-1-carbonyl)phenyl)acetamide]
101 to 500 nM	Cc1nn(C2CCCCC2)c2nc(C3CN(C(=O)OCc4ccccc4)C3)[nH]c(=O)c12 [Example 115, Benzyl 3-(1-cyclohexyl-3-methyl-4-oxo-4,5-dihydro-1H-pyrazolo[3,4-d]pyrimidin-6-yl)azetidine-1-carboxylate]
1 to 100 nM	CC(C)(C)n1ncc2c(=O)[nH]c(C3CN(C(=O)Oc4cccc(Cl)c4)C3)nc21 [Example 118, 3-chlorophenyl 3-(1-tert-butyl-4-oxo-4,5-dihydro-1H-pyrazolo[3,4-d]pyrimidin-6-yl)azetidine-1-carboxylate]
1 to 100 nM	CC(C)(C)n1ncc2c(=O)[nH]c(C3CN(C(=O)Oc4ccc5c(c4)OCO5)C3)nc21 [Example 119, benzo[d][1,3]dioxol-5-yl 3-(1-tert-butyl-4-oxo-4,5-dihydro-1H-pyrazolo[3,4-d]pyrimidin-6-yl)azetidine-1-carboxylate]
101 to 500 nM	Cc1nn(C2CCCCC2)c2nc(C3CN(C(=O)OC(C)(C)C)C3)[nH]c(=O)c12 [Example 123, tert-butyl 3-(1-cyclohexyl-3-methyl-4-oxo-4,5-dihydro-1H-pyrazolo[3,4-d]pyrimidin-6-yl)azetidine-1-carboxylate]
501 to 1000 nM	Cc1nn(C2CCCCC2)c2nc(C3CCCN(C(=O)Oc4ccccc4)C3)[nH]c(=O)c12 (stereo not drawn) [Example 124, phenyl 3-(1-cyclohexyl-3-methyl-4-oxo-4,5-dihydro-1H-pyrazolo[3,4-d]pyrimidin-6-yl)piperidine-1-carboxylate]
1 to 100 nM	O=c1[nH]c(C2CN(c3nc4ccccc4[nH]3)C2)nc2c1cnn2C1CCCCC1 [Example 125, 1-Cyclohexyl-6-(1-(1H-benzo[d]imidazol-2-yl)azetidin-3-yl)-1H-pyrazolo[3,4-d]pyrimidin-4-(5H)-one]
